# Measurements reported in patent US20160002273A1, “THIENO[3,2-D]PYRIMIDINE-6-CARBOXAMIDES AND ANALOGUES AS SIRTUIN MODULATORS” (GLAXOSMITHKLINE LLC, priority 2013, published 2016).
# Read-outs that look alike come from different tables or passages of the source.
# Columns and labels:
# SIRT2 = target: T1, SIRT2 (Homo sapiens, UniProt Q8IXJ6); assay: SIRT2 deacetylation of Trp 5-mer peptide, OAADPr mass spec assay; format: biochemical; set-up: His-SIRT2(1-389)
# T1 sequence (Q8IXJ6 1-389): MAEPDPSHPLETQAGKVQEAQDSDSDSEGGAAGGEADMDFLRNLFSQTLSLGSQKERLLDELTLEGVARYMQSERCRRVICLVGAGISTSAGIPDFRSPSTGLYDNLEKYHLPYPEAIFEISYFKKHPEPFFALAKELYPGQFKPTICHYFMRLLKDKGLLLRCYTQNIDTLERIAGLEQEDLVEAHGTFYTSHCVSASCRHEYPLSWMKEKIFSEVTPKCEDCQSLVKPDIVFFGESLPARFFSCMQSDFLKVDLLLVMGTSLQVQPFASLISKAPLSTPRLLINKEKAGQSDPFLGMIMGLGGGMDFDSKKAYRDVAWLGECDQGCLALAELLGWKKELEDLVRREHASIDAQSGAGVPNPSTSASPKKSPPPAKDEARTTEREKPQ
# SIRT1 = target: T2, SIRT1 (Homo sapiens, UniProt Q96EB6); assay: SIRT1 deacetylation of Trp 5-mer peptide, OAADPr mass spec assay
# T2 sequence (Q96EB6 1-747): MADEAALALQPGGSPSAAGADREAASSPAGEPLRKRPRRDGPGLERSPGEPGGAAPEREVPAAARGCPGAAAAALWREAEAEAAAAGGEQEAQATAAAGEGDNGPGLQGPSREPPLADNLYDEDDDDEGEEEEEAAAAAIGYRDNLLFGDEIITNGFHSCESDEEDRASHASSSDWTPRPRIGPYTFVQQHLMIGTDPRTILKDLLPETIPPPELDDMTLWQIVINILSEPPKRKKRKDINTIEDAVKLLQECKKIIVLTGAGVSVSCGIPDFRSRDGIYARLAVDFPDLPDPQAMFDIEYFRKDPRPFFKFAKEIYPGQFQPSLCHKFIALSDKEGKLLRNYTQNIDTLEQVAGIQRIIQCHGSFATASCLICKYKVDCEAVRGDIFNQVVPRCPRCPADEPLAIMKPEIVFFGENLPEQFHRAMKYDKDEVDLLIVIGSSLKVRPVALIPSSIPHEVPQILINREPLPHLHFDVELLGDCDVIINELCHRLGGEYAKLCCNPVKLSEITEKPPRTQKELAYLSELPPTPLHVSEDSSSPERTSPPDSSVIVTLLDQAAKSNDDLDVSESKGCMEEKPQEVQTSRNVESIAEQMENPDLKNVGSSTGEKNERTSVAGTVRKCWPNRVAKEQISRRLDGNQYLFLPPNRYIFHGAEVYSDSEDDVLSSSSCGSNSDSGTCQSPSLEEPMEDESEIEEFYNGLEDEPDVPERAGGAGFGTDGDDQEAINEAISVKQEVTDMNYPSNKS
# Protocol: (§1) All assays were performed at room temperature in reaction buffer (50 mM HEPES, pH 7.5, 150 mM NaCl, 1 mM DTT, 0.05% BSA). […] To prepare the assays for analysis, 20 μL of reaction volume was mixed in 80 μL of 50:50 acetonitrile:methanol mixture. […] Peak data was integrated using RapidFire Integrator software (Agilent, Santa Clara, Calif.).
# SIRT3 = target: T3, SIRT3 (Homo sapiens, UniProt Q9NTG7); assay: SIRT3 deacetylation of Trp 5-mer peptide, OAADPr mass spec assay; details: Trp SIRT3_IC50, Trp 5-mer peptide; class symbols
# T3 sequence (Q9NTG7 102-399): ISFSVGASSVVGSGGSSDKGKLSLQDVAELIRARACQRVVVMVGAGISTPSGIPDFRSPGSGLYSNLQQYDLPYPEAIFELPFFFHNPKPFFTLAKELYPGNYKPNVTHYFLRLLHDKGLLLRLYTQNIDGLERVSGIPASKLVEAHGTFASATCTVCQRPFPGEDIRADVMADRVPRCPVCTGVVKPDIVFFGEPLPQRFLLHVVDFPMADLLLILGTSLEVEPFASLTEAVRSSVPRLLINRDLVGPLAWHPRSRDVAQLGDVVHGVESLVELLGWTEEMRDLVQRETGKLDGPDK
# Protocol: as §1
# [1] = Trp 5-mer peptide and NAD at KM, mean of at least three determinations, read-out: IC50 (μM) SIRT2
# [2] = Trp 5-mer peptide, class symbols, read-out: Trp SIRT2_IC50
# [3] = Trp SIRT1_IC50, Trp 5-mer peptide, class symbols
# [4] = read-out: IC50 (μM) SIRT1, Trp 5-mer peptide and NAD at KM, mean of at least three determinations
# [5] = Trp SIRT2_IC50, Trp 5-mer peptide, class symbols
# [6] = IC50 (μM) SIRT1, Trp 5-mer peptide and NAD at KM, mean of at least three determinations
Compound,IC50 (SIRT2; [2]) [µM],IC50 (SIRT1; [3]) [µM],IC50 (SIRT3) [µM],IC50 (SIRT2; [5]) [µM],IC50 (SIRT1; [6]) [µM],"IC50 (SIRT2; IC50 (μM) SIRT2, Trp 5-mer peptide and NAD at KM, mean of at least three determinations) [µM]",IC50 (SIRT2; [1]) [µM],IC50 (SIRT1; [4]) [µM],"SIRT2 inhibition, in words (SIRT2; at the concentrations tested)","SIRT1 inhibition, in words (SIRT1; at the concentrations tested)"
"NCCN1CCN(c2ncnc3cc(C(N)=O)sc23)CC1 [Compound 16b, 4-(4-(2-aminoethyl)piperazin-1-yl)thieno[3,2-d]pyrimidine-6-carboxamide]",< 1,1 to 10,< 1,–,–,–,–,–,–,–
"NCCC1CCN(c2ncnc3cc(C(N)=O)sc23)CC1 [Compound 16a, 4-(4-(2-aminoethyl)piperidin-1-yl)thieno[3,2-d]pyrimidine-6-carboxamide]",–,1 to 10,–,< 1,–,–,0.11,1.6,–,–
"CC(C)(C)C(=O)NCCC1CCN(c2ncnc3cc(C(N)=O)oc23)CC1 [Compound 36, 4-(4-(2-pivalamidoethyl)piperidin-1-yl)furo[3,2-d]pyrimidine-6-carboxamide]",< 1,< 1,–,–,–,–,0.15,0.47,–,–
"CC(C)(C)C(=O)NCCCC1CCN(c2ncnc3cc(C(N)=O)sc23)CC1 [Compound 29, 4-(4-(3-pivalamidopropyl)piperidin-1-yl)thieno[3,2-d]pyrimidine-6-carboxamide]",< 1,< 1,–,–,–,–,0.016,0.042,–,–
CC(=S)NCCN1CCN(c2ncnc3cc(C(N)=O)sc23)CC1 [Compound 26],< 1,< 1,–,–,–,–,0.13,0.49,–,–
"CC(C)(C)C(=O)NCCC1CCN(c2ccnc3cc(C(N)=O)sc23)CC1 [Compound 37, 7-(4-(2-pivalamidoethyl)piperidin-1-yl)thieno[3,2-b]pyridine-2-carboxamide]",< 1,< 1,–,–,–,–,0.028,0.059,–,–
"NC(=O)c1cc2ncnc(N3CCC(CCNC(=O)c4cccs4)CC3)c2s1 [Compound 19, 4-(4-(2-(thiophene-2-carboxamido)ethyl)piperidin-1-yl)thieno[3,2-d]pyrimidine-6-carboxamide]",< 1,< 1,–,–,0.006,–,0.007,–,–,–
"NC(=O)c1cc2ncnc(N3CCC(CCNC(=O)c4ccc(C(=O)O)s4)CC3)c2s1 [Compound 18, 5-((2-(1-(6-carbamoylthieno[3,2-d]pyrimidin-4-yl)piperidin-4-yl)ethyl)carbamoyl)thiophene-2-carboxylic acid]",< 1,< 1,–,–,–,–,0.004,0.014,–,–
CC(=O)NCCC1CCN(c2ncnc3cc(C(N)=O)sc23)CC1 [Compound 20],< 1,< 1,–,–,–,–,0.023,0.11,–,–
"CC(C)(C)OC(=O)NCCC1CCN(c2ncnc3cc(C(N)=O)sc23)CC1 [Compound 15a, tert-butyl (2-(1-(6-carbamoylthieno[3,2-d]pyrimidin-4-yl)piperidin-4-yl)ethyl)carbamate]",< 1,< 1,–,–,–,–,0.005,0.017,–,–
"CC(C)(C)C(=O)NCCN1CCN(c2ncnc3cc(C(N)=O)sc23)CC1 [Compound 30, 4-(4-(2-pivalamidoethyl)piperazin-1-yl)thieno[3,2-d]pyrimidine-6-carboxamide]",< 1,< 1,–,–,–,–,0.017,0.12,–,–
NC(=O)c1cc2ncnc(N3CCC(CCN4CCCC4)CC3)c2s1 [Compound 34],< 1,< 1,–,–,–,–,0.067,0.11,–,–
"CC(C)(C)OC(=O)c1ccc(C(=O)NCCC2CCN(c3ncnc4cc(C(N)=O)sc34)CC2)s1 [Compound 17, tert-butyl 5-((2-(1-(6-carbamoylthieno[3,2-d]pyrimidin-4-yl)piperidin-4-yl)ethyl)carbamoyl)thiophene-2-carboxylate]",–,< 1,–,< 1,0.007,0.001,–,–,–,–
"CC(C)(C)C(=O)NCCC1CCN(c2ncnc3cc(C(=O)O)sc23)CC1 [Compound 40, 4-(4-(2-Pivalamidoethyl)piperidin-1-yl)thieno[3,2-d]pyrimidine-6-carboxylic acid 2,2,2-trifluoroacetate]",> 10,> 10,–,–,–,–,–,–,no measurable,no measurable
"CS(=O)(=O)NCCN1CCN(c2ncnc3cc(C(N)=O)sc23)CC1 [Compound 32, 4-(4-(2-(methylsulfonamido)ethyl)piperazin-1-yl)thieno[3,2-d]pyrimidine-6-carboxamide 2,2,2-trifluoroacetate]",< 1,< 1,–,–,–,–,0.053,0.38,–,–
"NC(=O)c1cc2ncnc(N3CCN(CCN4CCCC4)CC3)c2s1 [Compound 35, 4-(4-(2-(Pyrrolidin-1-yl)ethyl)piperazin-1-yl)thieno[3,2-d]pyrimidine-6-carboxamide bis(2,2,2-trifluoroacetate)]",< 1,< 1,–,–,–,–,0.029,0.053,–,–
NC(=O)c1cc2ncnc(N3CCC(CN4CCCC4)CC3)c2s1 [Compound 33],< 1,< 1,–,–,–,–,0.22,0.73,–,–
"CC(C)(C)C(=O)NCC1CCN(c2ncnc3cc(C(N)=O)sc23)CC1 [Compound 27, 4-(4-(pivalamidomethyl)piperidin-1-yl)thieno[3,2-d]pyrimidine-6-carboxamide]",< 1,1 to 10,–,–,–,–,0.74,4.3,–,–

# The next lines start with results.
IC50 (SIRT2; [2]) [µM],IC50 (SIRT1; [3]) [µM],IC50 (SIRT3) [µM],IC50 (SIRT2; [5]) [µM],IC50 (SIRT1; [6]) [µM],"IC50 (SIRT2; IC50 (μM) SIRT2, Trp 5-mer peptide and NAD at KM, mean of at least three determinations) [µM]",Compound,IC50 (SIRT2; [1]) [µM],IC50 (SIRT1; [4]) [µM],"SIRT2 inhibition, in words (SIRT2; at the concentrations tested)","SIRT1 inhibition, in words (SIRT1; at the concentrations tested)"
< 1,< 1,–,–,–,–,"Cc1c(C(N)=O)sc2c(N3CCC(CCNC(=O)C(C)(C)C)CC3)ncnc12 [Compound 39, 7-methyl-4-(4-(2-pivalamidoethyl)piperidin-1-yl)thieno[3,2-d]pyrimidine-6-carboxamide]",0.13,0.18,–,–
< 1,1 to 10,< 1,–,–,–,NC(=O)c1cc2ncnc(N3CCC(CCN4CCCC4)CC3)c2o1 [Compound 87],–,–,–,–
1 to 10,1 to 10,1 to 10,–,–,–,"CC1(C)COC(C2CCN(c3ncnc4cc(C(N)=O)sc34)CC2)OC1 [Compound 78, 4-(4-(5,5-dimethyl-1,3-dioxan-2-yl)piperidin-1-yl)thieno[3,2-d]pyrimidine-6-carboxamide]",–,–,–,–
> 10,> 10,> 10,–,–,–,"NCCC1CCN(c2nccc3cc(C(N)=O)sc23)CC1 [Compound 175, 7-(4-(2-aminoethyl)piperidin-1-yl)thieno[2,3-c]pyridine-2-carboxamide]",–,–,–,–
1 to 10,> 10,1 to 10,–,–,–,Cc1nc(N2CCN(CCN)CC2)c2sc(C(N)=O)cc2n1 [Compound 153],–,–,–,–
1 to 10,> 10,> 10,–,–,–,CC(C)(C)C(=O)NCCN1CCN(c2nccc3cc(C(N)=O)sc23)CC1 [Compound 179],–,–,–,–
< 1,1 to 10,–,–,–,–,CC(=O)NCCN1CCN(c2ncnc3cc(C(N)=O)sc23)CC1 [Compound 24],0.17,1.6,–,–
< 1,–,–,–,–,–,CS(=O)(=O)NCCC1CCN(c2ncnc3cc(C(N)=O)sc23)CC1 [Compound 31],0.001,–,–,–
1 to 10,–,> 10,–,–,–,"CC(C)(C)OC(=O)NCC1CCN(c2ncnc3cc(C(N)=O)sc23)CC1 [Compound 57, tert-butyl ((1-(6-carbamoylthieno[3,2-d]pyrimidin-4-yl)piperidin-4-yl)methyl)carbamate]",–,–,–,–
